Measurements as given in patent publication US20240025906A1 (NEURON23, INC., priority 2022, published 2024).

Experiments:
[1] = tested on: JAK1/TYK2 pSTAT5 (Tyr694/699) in THP-1 cell line; assay: IFNa-stimulated JAK1/TYK2 pSTAT5 (Tyr694/699) inhibition cellular assay, AlphaLISA; type: cell-based; settings: Homo sapiens; THP-1 cells, IFNa-stimulated, AlphaLISA (Assay B); read-out: Cellular_THP1_IFNa-pSTATS_TYK2
How it was run: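 pSTAT5 (Tyr694/699) in lysates quantified by AlphaLISA (615 nm) after 30 min IFNa stimulation (100 ng/mL stock) of THP-1 cells. The cells, 2e4 per well in HBSS, had first been exposed 1 h at 37° C. to eight 6-fold compound dilutions, 10000 down to 0.04 nM final. IC50 fitted by 4PL regression, bottom 0, Hill slope −1.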

TYK2 JH2 = molecular target: T1, TYK2 JH2 (Homo sapiens, UniProt P29597); assay: TYK2 JH2 binding assay (KINOMEscan KdELECT competitive binding); settings: TYK2 JH2 domain, KINOMEscan KdELECT (Assay A); read-out: Biochemical TYK2_DiscoverX_JH2_BND_Kd
T1 construct: purchased DiscoverX (KINOMEscan KdELECT service); host or cells: E. coli BL21-derived (T7 phage display) or HEK-293
T1 sequence (P29597 589-875 limits assumed): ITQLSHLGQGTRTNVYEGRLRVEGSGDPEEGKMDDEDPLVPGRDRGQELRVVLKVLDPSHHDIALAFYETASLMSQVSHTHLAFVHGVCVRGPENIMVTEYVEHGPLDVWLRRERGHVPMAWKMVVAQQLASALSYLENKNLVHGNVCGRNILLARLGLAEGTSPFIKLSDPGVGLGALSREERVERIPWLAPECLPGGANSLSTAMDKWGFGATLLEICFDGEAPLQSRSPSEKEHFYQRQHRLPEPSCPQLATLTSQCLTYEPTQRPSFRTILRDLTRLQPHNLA
How it was run: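 The assay measures displacement of DNA- or phage-tagged TYK2 pseudokinase domain from an affinity resin; compound binding lowers the amount captured, read by qPCR. Incubation lasts 1 h at room temperature.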

Row | SMILES | IC50 [1] | Kd (TYK2 JH2)
1 | CNc1ncc(C#Cc2ccc(OCC(C)(C)F)cc2)c2cc(NC(=O)C3CC3)ncc12 [Example 731, N-(5-((4-(2-fluoro-2-methylpropoxy)phenyl)ethynyl)-8-(methylamino)-2,7-naphthyridin-3-yl)cyclopropanecarboxamide] | > 0.5 µM | ≤ 0.1 µM
2 | CNc1ncc(C#Cc2ccc(OCF)cn2)c2cc(NC(=O)C3CC3)ncc12 [Example 732, N-(5-((5-(fluoromethoxy)pyridin-2-yl)ethynyl)-8-(methylamino)-2,7-naphthyridin-3-yl)cyclopropanecarboxamide] | ≤ 0.5 µM | ≤ 0.1 µM
3 | CNc1ncc(C#Cc2ccc(N3CC4CN(C)CC(C3)O4)cn2)c2cc(NC(=O)C3CC3)ncc12 [Example 733, N-(5-((5-(7-methyl-9-oxa-3,7-diazabicyclo[3.3.1]nonan-3-yl)pyridin-2-yl)ethynyl)-8-(methylamino)-2,7-naphthyridin-3-yl)cyclopropanecarboxamide] | ≤ 0.5 µM | ≤ 0.1 µM
4 | CNc1ncc(C#Cc2ccc(N3CC4CN(C)CC(C3)O4)cc2)c2cc(NC(=O)C3CC3)ncc12 [Example 734, N-(5-((4-(7-methyl-9-oxa-3,7-diazabicyclo[3.3.1]nonan-3-yl)phenyl)ethynyl)-8-(methylamino)-2,7-naphthyridin-3-yl)cyclopropanecarboxamide] | ≤ 0.5 µM | ≤ 0.1 µM
5 | CNc1ncc(C#Cc2ccc(OC3CN(C(C)=O)C3)cn2)c2cc(NC(=O)C3CC3)ncc12 [Example 735, N-(5-((5-((1-acetylazetidin-3-yl)oxy)pyridin-2-yl)ethynyl)-8-(methylamino)-2,7-naphthyridin-3-yl)cyclopropanecarboxamide] | ≤ 0.5 µM | ≤ 0.1 µM
6 | CNc1ncc(C#Cc2ccc(OC3CN(C(C)=O)C3)cn2)c2cc(NC(=O)C3(F)CC3)ncc12 [Example 736, N-(5-((5-((1-acetylazetidin-3-yl)oxy)pyridin-2-yl)ethynyl)-8-(methylamino)-2,7-naphthyridin-3-yl)-1-fluorocyclopropane-1-carboxamide] | ≤ 0.5 µM | ≤ 0.1 µM
7 | CNc1ncc(C#Cc2ccc(NC(=O)COC)cc2)c2cc(NC(=O)C3CC3)ncc12 [Example 737, N-(5-((4-(2-methoxyacetamido)phenyl)ethynyl)-8-(methylamino)-2,7-naphthyridin-3-yl)cyclopropanecarboxamide] | ≤ 0.5 µM | ≤ 0.1 µM
8 | CNc1ncc(C#Cc2ccc(P(C)(C)=O)cn2)c2cc(NC(=O)C3CC3)ncc12 [Example 738, N-(5-((5-(dimethylphosphoryl)pyridin-2-yl)ethynyl)-8-(methylamino)-2,7-naphthyridin-3-yl)cyclopropanecarboxamide] | ≤ 0.5 µM | ≤ 0.1 µM
9 | CNc1ncc(C#Cc2ccc3nc(C(F)F)n(C)c3c2)c2cc(NC(=O)C3CC3)ncc12 [Example 739, N-(5-((2-(difluoromethyl)-1-methyl-1H-benzo[d]imidazol-6-yl)ethynyl)-8-(methylamino)-2,7-naphthyridin-3-yl)cyclopropanecarboxamide] | ≤ 0.5 µM | ≤ 0.1 µM
10 | CNc1ncc(C#Cc2ccc3nc(C4CC4)n(C)c3c2)c2cc(NC(=O)C3CC3)ncc12 [Example 740, N-(5-((2-cyclopropyl-1-methyl-1H-benzo[d]imidazol-6-yl)ethynyl)-8-(methylamino)-2,7-naphthyridin-3-yl)cyclopropanecarboxamide] | ≤ 0.5 µM | ≤ 0.1 µM
11 | CNc1ncc(C#Cc2ccc(OC[C@H]3COCCO3)cc2)c2cc(NC(=O)C3CC3)ncc12 [Example 741, (R)—N-(5-((4-((1,4-dioxan-2-yl)methoxy)phenyl)ethynyl)-8-(methylamino)-2,7-naphthyridin-3-yl)cyclopropanecarboxamide] | ≤ 0.5 µM | ≤ 0.1 µM
12 | CNc1ncc(C#Cc2ccc(OC)cn2)c2cc(NC(=O)[C@H]3C[C@H]3C)ncc12 [Example 742, (1S,2R)—N-(5-((5-methoxypyridin-2-yl)ethynyl)-8-(methylamino)-2,7-naphthyridin-3-yl)-2-methylcyclopropane-1-carboxamide] | ≤ 0.5 µM | ≤ 0.1 µM
13 | CNc1ncc(C#Cc2ccc(OC)cn2)c2cc(NC(=O)C3(F)CC3)ncc12 [Example 743, 1-fluoro-N-(5-((5-methoxypyridin-2-yl)ethynyl)-8-(methylamino)-2,7-naphthyridin-3-yl)cyclopropane-1-carboxamide] | ≤ 0.5 µM | ≤ 0.1 µM
14 | CNc1ncc(C#Cc2ccc(OC)cn2)c2cc(NC(=O)C3CC3C(F)F)ncc12 [Example 744, (1R,18)-2-(difluoromethyl)-N-(5-((5-methoxypyridin-2-yl)ethynyl)-8-(methylamino)-2,7-naphthyridin-3-yl)cyclopropane-1-carboxamide] | ≤ 0.5 µM | ≤ 0.1 µM
15 | CNc1ncc(C#Cc2ccc3c(C)noc3c2)c2cc(NC(=O)C3CC3)ncc12 [Example 748, N-(8-(methylamino)-5-((3-methylbenzo[d]isoxazol-6-yl)ethynyl)-2,7-naphthyridin-3-yl)cyclopropanecarboxamide] | ≤ 0.5 µM | ≤ 0.1 µM
16 | CNc1ncc(C#Cc2ccc(C(C)=O)c(O)c2)c2cc(NC(=O)C3CC3)ncc12 [Example 749, N-(5-((4-acetyl-3-hydroxyphenyl)ethynyl)-8-(methylamino)-2,7-naphthyridin-3-yl)cyclopropanecarboxamide] | ≤ 0.5 µM | ≤ 0.1 µM
17 | CCNc1ncc(C#Cc2ccc3nc4n(c3c2)CCOC4)c2cc(NC(=O)C3CC3)ncc12 [Example 750, N-(5-((3,4-dihydro-1H-benzo[4,5]imidazo[2,1-c][1,4]oxazin-7-yl)ethynyl)-8-(ethylamino)-2,7-naphthyridin-3-yl)cyclopropanecarboxamide] | ≤ 0.5 µM | ≤ 0.1 µM
18 | CNc1ncc(C#Cc2ccc3nnn(C)c3c2)c2cc(Nc3ccccn3)ncc12 [Example 751, N^1-methyl-4-((1-methyl-1H-benzo[d][1,2,3]triazol-6-yl)ethynyl)-N^6-(pyridin-2-yl)-2,7-naphthyridine-1,6-diamine] | ≤ 0.5 µM | ≤ 0.1 µM
19 | CNc1ncc(C#Cc2ccc(OC)cc2)c2cc(NC(=O)[C@@H]3C[C@@H]3F)ncc12 [Example 752, (1S,2S)-2-fluoro-N-(5-((4-methoxyphenyl)ethynyl)-8-(methylamino)-2,7-naphthyridin-3-yl)cyclopropane-1-carboxamide] | ≤ 0.5 µM | ≤ 0.1 µM
20 | CNc1ncc(C#Cc2ccc(OC)cc2)c2cc(NC(=O)[C@H]3C[C@H]3C)ncc12 [Example 753, (1S,2R)—N-(5-((4-methoxyphenyl)ethynyl)-8-(methylamino)-2,7-naphthyridin-3-yl)-2-methylcyclopropane-1-carboxamide] | ≤ 0.5 µM | ≤ 0.1 µM
21 | CNc1ncc(C#Cc2ccc3nc4n(c3c2)CCOC4)c2cc(NC(=O)C3(F)CC3)ncc12 [Example 758, N-(5-((3,4-dihydro-1H-benzo[4,5]imidazo[2,1-c][1,4]oxazin-7-yl)ethynyl)-8-(methylamino)-2,7-naphthyridin-3-yl)-1-fluorocyclopropane-1-carboxamide] | ≤ 0.5 µM | ≤ 0.1 µM
22 | CNc1ncc(C#Cc2ccc3nnn(C)c3c2)c2cc(NC(=O)C3(F)CC3)ncc12 [Example 759, 1-fluoro-N-(5-((1-methyl-1H-benzo[d][1,2,3]triazol-6-yl)ethynyl)-8-(methylamino)-2,7-naphthyridin-3-yl)cyclopropane-1-carboxamide] | > 0.5 µM | ≤ 0.1 µM
23 | CNc1ncc(C#Cc2ccc(OC3CN(C(C)=O)C3)cc2)c2cc(NC(=O)C3(F)CC3)ncc12 [Example 760, N-(5-((4-((1-acetylazetidin-3-yl)oxy)phenyl)ethynyl)-8-(methylamino)-2,7-naphthyridin-3-yl)-1-fluorocyclopropane-1-carboxamide] | ≤ 0.5 µM | ≤ 0.1 µM
24 | CCn1c(C)nc2ccc(C#Cc3cnc(NC)c4cnc(NC(=O)C5CC5)cc34)cc21 [Example 761, N-(5-((1-ethyl-2-methyl-1H-benzo[d]imidazol-6-yl)ethynyl)-8-(methylamino)-2,7-naphthyridin-3-yl)cyclopropanecarboxamide] | ≤ 0.5 µM | ≤ 0.1 µM
25 | CCn1c(C)nc2cc(C#Cc3cnc(NC)c4cnc(NC(=O)C5CC5)cc34)ccc21 [Example 762, N-(5-((1-ethyl-2-methyl-1H-benzo[d]imidazol-5-yl)ethynyl)-8-(methylamino)-2,7-naphthyridin-3-yl)cyclopropanecarboxamide] | ≤ 0.5 µM | ≤ 0.1 µM
26 | CNc1ncc(C#Cc2ccc3nc(C)n(C(F)F)c3c2)c2cc(NC(=O)C3CC3)ncc12 [Example 763, N-(5-((1-(difluoromethyl)-2-methyl-1H-benzo[d]imidazol-6-yl)ethynyl)-8-(methylamino)-2,7-naphthyridin-3-yl)cyclopropanecarboxamide] | ≤ 0.5 µM | ≤ 0.1 µM
27 | CNc1ncc(C#Cc2ccc3c(c2)nc(C)n3C(F)F)c2cc(NC(=O)C3CC3)ncc12 [Example 764, A-(5-((1-(difluoromethyl)-2-methyl-1H-benzo[d]imidazol-5-yl)ethynyl)-8-(methylamino)-2,7-naphthyridin-3-yl)cyclopropanecarboxamide] | ≤ 0.5 µM | ≤ 0.1 µM
